Values after ≈ are worked out from the molar mass of the structure shown.
Key:
[1] = Cytotoxicity against human A549 cells after 48 hrs by MTT assay; format: functional, cell-based; details: A549, 48 h
[2] = Cytotoxicity against human HT-29 cells after 48 hrs by MTT assay; format: functional, cell-based; details: HT-29, 48 h
[3] = Cytotoxicity against human MCF7 cells after 48 hrs by MTT assay; format: functional, cell-based; details: MCF7, 48 h
[4] = Cytotoxicity against human A375 cells after 48 hrs by MTT assay; format: functional, cell-based; details: A-375, 48 h
Staphylococcus aureus = test: Antimicrobial activity against Staphylococcus aureus ATCC 25923 incubated overnight by two-fold serial dilution method; format: functional
Bacillus cereus = test: Antimicrobial activity against Bacillus cereus ATCC 10876 incubated overnight by two-fold serial dilution method; format: functional
Pseudomonas aeruginosa = test: Antimicrobial activity against Pseudomonas aeruginosa ATCC 10145 incubated overnight by two-fold serial dilution method; format: functional

| Compound | MIC (Staphylococcus aureus) [µg/mL] | MIC (Bacillus cereus) [µg/mL] | MIC (Pseudomonas aeruginosa) [µg/mL] | IC50 [1] [µM] | IC50 [2] [µM] | IC50 [3] [µM] | IC50 [4] [µM] |
| --- | --- | --- | --- | --- | --- | --- | --- |
| Cn1c(=O)c2c(ncn2CC(=O)OCCCc2cn(CC3OC(n4ccc(=O)[nH]c4=O)C4OC(C)(C)OC34)nn2)n(C)c1=O (stereo unspecified) | 0.125 (≈ 0.204 µM) | 0.0312 (≈ 0.0509 µM) | 0.0312 (≈ 0.0509 µM) | 14.3 | 12.4 | 30.6 | 8.23 |
| CCn1c(=O)ccn(C2OC(Cn3cc(COC(=O)C(C)NC(=O)C(C)n4cnc5c4c(=O)n(C)c(=O)n5C)nn3)C(O)C2O)c1=O (stereo unspecified) | 0.0312 (≈ 0.0474 µM) | 0.0312 (≈ 0.0474 µM) | 0.0625 (≈ 0.0949 µM) | 1.56 | 2.71 | 3.8 | 52.3 |
| Cn1c(=O)c2c(ncn2CC(=O)NCc2cn(CC3OC(n4ccc(=O)[nH]c4=O)C4OC(C)(C)OC34)nn2)n(C)c1=O (stereo unspecified) | 0.0312 (≈ 0.0535 µM) | 0.125 (≈ 0.214 µM) | 0.125 (≈ 0.214 µM) | 53.9 | 58.2 | 2.14 | 58.2 |
| Cn1c(=O)c2c(ncn2CC(=O)NCC(=O)OCc2cn(CC3OC(n4ccc(=O)[nH]c4=O)C4OC(C)(C)OC34)nn2)n(C)c1=O (stereo unspecified) | 0.0312 (≈ 0.0486 µM) | 0.0156 (≈ 0.0243 µM) | 0.125 (≈ 0.195 µM) | 5.67 | 59.3 | 12.6 | 59.8 |
| C#CCCCn1cnc2c1c(=O)n(C)c(=O)n2C | 0.0312 (≈ 0.127 µM) | 0.125 (≈ 0.508 µM) | 0.125 (≈ 0.508 µM) | 55.4 | 160 | 34.2 | 156 |
| Cn1c(=O)c2c(ncn2CC(=O)OCCc2cn(CC3OC(n4ccc(=O)[nH]c4=O)C4OC(C)(C)OC34)nn2)n(C)c1=O (stereo unspecified) | – | – | – | 7.39 | 100 | 2.4 | 54.2 |
| CCn1c(=O)ccn(C2OC(Cn3cc(COC(=O)Cn4cnc5c4c(=O)n(C)c(=O)n5C)nn3)C(OC)C2OC)c1=O (stereo unspecified) | – | – | – | 56.8 | 58.8 | 2.67 | 62.8 |
| C#CCCCOC(=O)Cn1cnc2c1c(=O)n(C)c(=O)n2C | 0.5 (≈ 1.64 µM) | 0.0625 (≈ 0.205 µM) | 0.0625 (≈ 0.205 µM) | 56.8 | 36.6 | 162 | 158 |
| C#CCNC(=O)Cn1cnc2c1c(=O)n(C)c(=O)n2C | 0.0156 (≈ 0.0567 µM) | 0.0625 (≈ 0.227 µM) | 0.0625 (≈ 0.227 µM) | 114 | 19.4 | 157 | 28.2 |
| C#CCOC(=O)Cn1cnc2c1c(=O)n(C)c(=O)n2C | 0.0312 (≈ 0.113 µM) | 0.125 (≈ 0.452 µM) | 0.125 (≈ 0.452 µM) | 156 | 68.3 | 33.9 | 33.6 |
| CCn1c(=O)ccn(C2OC(Cn3cc(COC(=O)CNC(=O)Cn4cnc5c4c(=O)n(C)c(=O)n5C)nn3)C(OC)C2OC)c1=O (stereo unspecified) | – | – | – | 52 | 74.3 | 59.8 | 77.4 |
| O=C(O)c1cn(C2CC2)c2cc(N3CCNCC3)c(F)cc2c1=O [CIPROFLOXACIN] | 0.0312 (≈ 0.0943 µM) | 0.0156 (≈ 0.0471 µM) | 0.0625 (≈ 0.189 µM) | – | – | – | – |
| COc1ccc(/C=C\c2cc(OC)c(OC)c(OC)c2)cc1O [COMBRETASTATIN A4] | – | – | – | 0.11 | 0.93 | 0.18 | 0.21 |

Continued, in another order:

| MIC (Staphylococcus aureus) [µg/mL] | MIC (Bacillus cereus) [µg/mL] | MIC (Pseudomonas aeruginosa) [µg/mL] | Compound | IC50 [1] [µM] | IC50 [2] [µM] | IC50 [3] [µM] | IC50 [4] [µM] |
| --- | --- | --- | --- | --- | --- | --- | --- |
| 0.0625 (≈ 0.286 µM) | 0.125 (≈ 0.573 µM) | 0.125 (≈ 0.573 µM) | C#CCn1cnc2c1c(=O)n(C)c(=O)n2C | 152 | 158 | 103 | 153 |
| 0.0625 (≈ 0.0991 µM) | 0.125 (≈ 0.198 µM) | 0.0625 (≈ 0.0991 µM) | CCn1c(=O)ccn(C2OC(Cn3cc(COC(=O)CNC(=O)Cn4cnc5c4c(=O)n(C)c(=O)n5C)nn3)C(O)C2O)c1=O (stereo unspecified) | 3.57 | 2.9 | 2.1 | 5.81 |
| 0.0625 (≈ 0.113 µM) | 0.0156 (≈ 0.0281 µM) | 0.0625 (≈ 0.113 µM) | Cn1c(=O)c2c(ncn2CCCc2cn(CC3OC(n4ccc(=O)[nH]c4=O)C4OC(C)(C)OC34)nn2)n(C)c1=O (stereo unspecified) | 15.4 | 7.45 | 34.2 | 9.4 |
| 0.5 (≈ 0.948 µM) | 0.0312 (≈ 0.0592 µM) | 0.0312 (≈ 0.0592 µM) | Cn1c(=O)c2c(ncn2Cc2cn(CC3OC(n4ccc(=O)[nH]c4=O)C4OC(C)(C)OC34)nn2)n(C)c1=O (stereo unspecified) | 8.59 | 58.2 | 10.4 | 54.2 |
| 0.0312 (≈ 0.0534 µM) | 0.125 (≈ 0.213 µM) | 0.0625 (≈ 0.107 µM) | Cn1c(=O)c2c(ncn2CC(=O)OCc2cn(CC3OC(n4ccc(=O)[nH]c4=O)C4OC(C)(C)OC34)nn2)n(C)c1=O (stereo unspecified) | 3.59 | 6.2 | 23.6 | 56.2 |
| 0.0156 (≈ 0.0266 µM) | 0.0625 (≈ 0.106 µM) | 0.0312 (≈ 0.0532 µM) | CCn1c(=O)ccn(C2OC(Cn3cc(COC(=O)C(C)n4cnc5c4c(=O)n(C)c(=O)n5C)nn3)C(O)C2O)c1=O (stereo unspecified) | 2.89 | 62.8 | 2.13 | 68.4 |
| 0.0625 (≈ 0.109 µM) | 0.0625 (≈ 0.109 µM) | 0.0625 (≈ 0.109 µM) | CCn1c(=O)ccn(C2OC(Cn3cc(COC(=O)Cn4cnc5c4c(=O)n(C)c(=O)n5C)nn3)C(O)C2O)c1=O (stereo unspecified) | 2.56 | 2.19 | 1.89 | 4.89 |
| 0.0625 (≈ 0.215 µM) | 0.125 (≈ 0.431 µM) | 0.0625 (≈ 0.215 µM) | C#CCCOC(=O)Cn1cnc2c1c(=O)n(C)c(=O)n2C | 104 | 152 | 56.3 | 159 |

Reference: ChEMBL document CHEMBL3870314, “Design, synthesis, anticancer, antimicrobial activities and molecular docking studies of theophylline containing acetylenes and theophylline containing 1,2,3-triazoles with variant nucleoside derivatives” (Eur J Med Chem, 2016)
